Measured values reported in ChEMBL document CHEMBL5053535, “Design, synthesis and biological evaluation of novel aminopyrazole- and 7-azaindole-based Nek1 inhibitors and their effects on zebrafish kidney development” (Bioorg Med Chem Lett, 2021).
pIC50: −log10 of the molar value. ≈ marks a conversion by molar mass, not a printed value.

Tests used:
[1] = biological target: T1, Serine/threonine-protein kinase Nek1 (Homo sapiens) (UniProt Q96PY6); assay: Inhibition of human NEK1 using myelin basic protein as substrate assessed as residual activity at 1 uM in presence of [gamma-33P]-ATP by radiometric hotspot kinase assay relative to control
T1 sequence (whole entry): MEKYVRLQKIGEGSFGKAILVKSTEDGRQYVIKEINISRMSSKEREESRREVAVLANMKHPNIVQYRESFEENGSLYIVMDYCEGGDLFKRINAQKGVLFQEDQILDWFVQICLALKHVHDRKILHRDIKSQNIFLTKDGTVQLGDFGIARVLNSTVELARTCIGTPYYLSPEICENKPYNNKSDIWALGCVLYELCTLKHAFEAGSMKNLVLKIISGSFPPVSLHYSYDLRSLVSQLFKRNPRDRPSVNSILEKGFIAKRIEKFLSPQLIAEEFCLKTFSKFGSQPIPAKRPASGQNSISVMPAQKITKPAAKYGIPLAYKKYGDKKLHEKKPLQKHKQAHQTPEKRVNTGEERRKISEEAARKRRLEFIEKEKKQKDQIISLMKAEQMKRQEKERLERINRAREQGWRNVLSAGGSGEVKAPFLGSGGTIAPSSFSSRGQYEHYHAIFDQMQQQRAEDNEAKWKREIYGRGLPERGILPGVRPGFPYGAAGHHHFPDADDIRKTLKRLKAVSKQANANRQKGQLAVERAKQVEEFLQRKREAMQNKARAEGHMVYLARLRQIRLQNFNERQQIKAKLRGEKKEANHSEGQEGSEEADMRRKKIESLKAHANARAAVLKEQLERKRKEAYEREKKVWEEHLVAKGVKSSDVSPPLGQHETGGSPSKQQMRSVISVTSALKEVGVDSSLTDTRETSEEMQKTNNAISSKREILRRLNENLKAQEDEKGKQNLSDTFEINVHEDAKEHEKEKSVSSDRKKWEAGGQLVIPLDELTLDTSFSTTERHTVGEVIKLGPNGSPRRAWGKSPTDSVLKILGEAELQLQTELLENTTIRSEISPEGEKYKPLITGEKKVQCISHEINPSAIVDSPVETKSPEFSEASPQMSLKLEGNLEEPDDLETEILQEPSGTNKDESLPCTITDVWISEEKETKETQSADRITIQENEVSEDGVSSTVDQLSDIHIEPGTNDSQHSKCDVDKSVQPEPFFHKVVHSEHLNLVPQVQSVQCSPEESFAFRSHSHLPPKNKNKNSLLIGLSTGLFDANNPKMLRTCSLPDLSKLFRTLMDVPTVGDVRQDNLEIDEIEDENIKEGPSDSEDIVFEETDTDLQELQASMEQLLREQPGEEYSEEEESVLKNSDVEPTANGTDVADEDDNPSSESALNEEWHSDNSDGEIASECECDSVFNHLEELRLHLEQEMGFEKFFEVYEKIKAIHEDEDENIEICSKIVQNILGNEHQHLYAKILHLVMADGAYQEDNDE

[2] = Solubility of the compound in DMEM with 1% DMSO by DAD-HPLC based shake flask method; assay type: physicochemical
[3] = biological target: Cyclin-dependent kinase 2/cyclin E1 (Homo sapiens) (UniProt P24864+P24941); assay: (§1) Inhibition of human recombinant full length C-terminal His6 tagged CDK2/ N-terminal GST-tagged Cyclin E expressed in baculovirus infected Sf21 insect cells using histone H1 as substrate assessed as residual activity at 1 uM pretreated for 20 mins followed by [33P]-ATP addition measured after 120 mins by radiometric hotspot kinase assay relative to control; settings: time 140.0 min
[4] = Solubility of the compound in E3 medium with 0.2% DMSO by DAD-HPLC based shake flask method; assay type: physicochemical
[5] = biological target: T2, Serine/threonine-protein kinase Chk1 (Homo sapiens) (UniProt O14757); assay: as §1, with “N-terminal His” for “C-terminal His6”, “CHK1” for “CDK2/ N-terminal GST-tagged Cyclin E”, “CHKtide” for “histone H1”; settings: time 140.0 min
T2 sequence (whole entry): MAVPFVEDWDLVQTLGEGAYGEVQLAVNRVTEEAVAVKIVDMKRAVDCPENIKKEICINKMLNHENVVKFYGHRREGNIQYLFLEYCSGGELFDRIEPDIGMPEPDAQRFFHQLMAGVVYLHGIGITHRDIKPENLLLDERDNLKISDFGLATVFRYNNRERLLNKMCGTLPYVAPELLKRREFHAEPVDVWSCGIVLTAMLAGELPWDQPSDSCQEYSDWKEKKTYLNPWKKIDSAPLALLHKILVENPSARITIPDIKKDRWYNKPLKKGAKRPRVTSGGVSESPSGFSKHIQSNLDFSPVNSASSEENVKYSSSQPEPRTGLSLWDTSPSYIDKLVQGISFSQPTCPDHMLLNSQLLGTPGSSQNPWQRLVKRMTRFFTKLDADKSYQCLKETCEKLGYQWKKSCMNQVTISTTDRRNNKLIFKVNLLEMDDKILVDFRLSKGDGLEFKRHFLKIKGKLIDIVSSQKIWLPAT

[6] = biological target: T3, Serine/threonine-protein kinase Nek5 (Homo sapiens) (UniProt Q6P3R8); assay: Inhibition of human recombinant NEK5 assessed as residual activity at 1 uM pretreated for 20 mins followed by [33P]-ATP addition measured after 120 mins by radiometric hotspot kinase assay relative to control; settings: time 140.0 min
T3 sequence (whole entry): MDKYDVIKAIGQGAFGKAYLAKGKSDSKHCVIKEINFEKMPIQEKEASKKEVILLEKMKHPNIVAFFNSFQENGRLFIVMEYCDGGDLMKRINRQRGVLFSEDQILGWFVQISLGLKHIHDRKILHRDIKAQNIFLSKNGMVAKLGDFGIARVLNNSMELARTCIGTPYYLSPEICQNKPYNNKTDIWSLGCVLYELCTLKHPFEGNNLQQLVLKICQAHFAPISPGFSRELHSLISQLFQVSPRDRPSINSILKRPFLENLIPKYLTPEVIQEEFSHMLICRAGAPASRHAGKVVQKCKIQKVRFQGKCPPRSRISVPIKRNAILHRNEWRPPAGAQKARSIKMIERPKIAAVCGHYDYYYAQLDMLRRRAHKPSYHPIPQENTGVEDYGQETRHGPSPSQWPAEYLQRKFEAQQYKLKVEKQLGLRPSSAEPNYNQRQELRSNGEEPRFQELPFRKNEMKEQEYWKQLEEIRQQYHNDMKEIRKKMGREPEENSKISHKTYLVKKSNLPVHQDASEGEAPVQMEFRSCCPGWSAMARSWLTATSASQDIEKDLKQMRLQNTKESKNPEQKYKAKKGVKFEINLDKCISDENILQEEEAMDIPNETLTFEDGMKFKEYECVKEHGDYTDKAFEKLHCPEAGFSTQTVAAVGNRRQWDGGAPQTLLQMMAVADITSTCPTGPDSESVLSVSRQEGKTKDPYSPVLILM

[7] = biological target: Wee1-like protein kinase (Homo sapiens) (UniProt P30291); assay: Inhibition of human recombinant full length WEE1 expressed in insect cells using MBP as substrate assessed as residual activity at 1 uM pretreated for 20 mins followed by [33P]-ATP addition measured after 120 mins by radiometric hotspot kinase assay relative to control; settings: time 140.0 min
Sequence of Wee1-like protein kinase (Homo sapiens) (P30291 whole entry, looked up): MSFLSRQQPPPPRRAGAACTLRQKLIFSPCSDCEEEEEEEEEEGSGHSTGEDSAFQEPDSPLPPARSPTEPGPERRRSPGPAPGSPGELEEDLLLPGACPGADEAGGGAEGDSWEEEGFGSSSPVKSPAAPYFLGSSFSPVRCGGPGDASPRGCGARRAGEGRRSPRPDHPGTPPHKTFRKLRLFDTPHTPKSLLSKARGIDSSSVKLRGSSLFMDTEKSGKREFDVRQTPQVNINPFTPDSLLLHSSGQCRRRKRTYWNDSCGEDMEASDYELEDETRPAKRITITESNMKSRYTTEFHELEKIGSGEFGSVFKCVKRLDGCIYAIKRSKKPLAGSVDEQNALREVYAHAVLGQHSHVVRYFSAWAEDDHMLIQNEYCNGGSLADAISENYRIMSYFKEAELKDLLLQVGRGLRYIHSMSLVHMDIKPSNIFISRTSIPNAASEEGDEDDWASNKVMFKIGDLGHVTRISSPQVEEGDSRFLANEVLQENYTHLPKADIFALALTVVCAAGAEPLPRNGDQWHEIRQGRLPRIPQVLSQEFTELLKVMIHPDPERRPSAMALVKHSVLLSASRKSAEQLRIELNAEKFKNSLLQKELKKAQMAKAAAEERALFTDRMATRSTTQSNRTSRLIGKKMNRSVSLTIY

[8] = Stability of the compound in DMEM measured after 48 hrs by DAD-HPLC method; assay type: physicochemical; settings: read-out: Stability
[9] = biological target: Vascular endothelial growth factor receptor 2 (Homo sapiens) (UniProt P35968); assay: Inhibition of human recombinant C-terminal His6 tagged VEGFR2 (789 to 1356 residues) expressed in baculovirus infected insect cells assessed as residual activity at 1 uM pretreated for 20 mins followed by [33P]-ATP addition measured after 120 mins by radiometric hotspot kinase assay relative to control; settings: time 140.0 min
Sequence of Vascular endothelial growth factor receptor 2 (Homo sapiens) (P35968 whole entry, the tested form may be a part): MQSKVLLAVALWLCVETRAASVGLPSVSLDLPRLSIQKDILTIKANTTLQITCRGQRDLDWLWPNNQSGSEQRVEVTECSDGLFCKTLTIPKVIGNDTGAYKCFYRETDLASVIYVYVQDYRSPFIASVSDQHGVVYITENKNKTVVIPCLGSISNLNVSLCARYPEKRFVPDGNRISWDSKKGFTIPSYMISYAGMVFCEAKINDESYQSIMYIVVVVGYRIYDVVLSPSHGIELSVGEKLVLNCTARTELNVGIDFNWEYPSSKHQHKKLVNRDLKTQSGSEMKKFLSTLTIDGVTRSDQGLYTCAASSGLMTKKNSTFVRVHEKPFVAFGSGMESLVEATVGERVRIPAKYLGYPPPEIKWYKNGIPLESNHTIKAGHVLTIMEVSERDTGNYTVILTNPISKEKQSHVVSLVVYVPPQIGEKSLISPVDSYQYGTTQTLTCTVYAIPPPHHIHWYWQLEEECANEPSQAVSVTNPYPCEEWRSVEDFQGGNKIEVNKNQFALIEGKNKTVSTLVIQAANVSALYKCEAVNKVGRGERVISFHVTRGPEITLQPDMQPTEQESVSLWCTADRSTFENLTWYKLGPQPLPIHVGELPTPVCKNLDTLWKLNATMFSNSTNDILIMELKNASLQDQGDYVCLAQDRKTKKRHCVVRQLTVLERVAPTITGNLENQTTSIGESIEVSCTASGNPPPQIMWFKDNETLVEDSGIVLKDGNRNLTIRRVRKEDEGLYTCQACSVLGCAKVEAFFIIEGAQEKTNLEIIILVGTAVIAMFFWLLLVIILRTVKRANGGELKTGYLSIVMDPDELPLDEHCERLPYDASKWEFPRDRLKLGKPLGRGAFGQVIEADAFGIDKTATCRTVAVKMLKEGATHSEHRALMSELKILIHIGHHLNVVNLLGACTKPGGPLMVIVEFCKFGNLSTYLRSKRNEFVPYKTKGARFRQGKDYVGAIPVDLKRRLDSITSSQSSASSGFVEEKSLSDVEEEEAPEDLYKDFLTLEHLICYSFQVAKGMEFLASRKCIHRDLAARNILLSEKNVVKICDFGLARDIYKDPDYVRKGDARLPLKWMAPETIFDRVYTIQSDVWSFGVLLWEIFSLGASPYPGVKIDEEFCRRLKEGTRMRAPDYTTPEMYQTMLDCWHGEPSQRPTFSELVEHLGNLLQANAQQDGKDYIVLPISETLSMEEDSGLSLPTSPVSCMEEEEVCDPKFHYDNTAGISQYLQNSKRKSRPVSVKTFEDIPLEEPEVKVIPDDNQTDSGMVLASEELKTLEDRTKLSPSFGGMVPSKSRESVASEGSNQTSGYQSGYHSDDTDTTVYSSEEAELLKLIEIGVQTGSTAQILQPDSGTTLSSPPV

[10] = biological target: T4, Serine/threonine-protein kinase Nek1 (Homo sapiens, UniProt Q96PY6); assay: Inhibition of human NEK1 using myelin basic protein as substrate assessed as residual activity in presence of [gamma-33P]-ATP by radiometric hotspot kinase assay relative to control
T4 sequence (Q96PY6 whole entry): T1 sequence (whole entry)

[11] = species on record: Danio rerio; assay: (§2) Toxicity in wild type zebra fish model of polycystic kidney disease assessed as increase in fluorescence intensity at 0.1 uM incubated for 48 hrs in presence of N-phenyl thiourea further treated with PT-yellow for 20 mins followed by dye washout and incubated in solution containing compound for 96 hrs by fluorescence imaging analysis; assay type: organism-based; settings: zebrafish, in vivo
[12] = species on record: Danio rerio; assay: Toxicity in zebra fish embryos assessed as enlarged yolk sac at 0.1 uM measured after 96 hrs; assay type: organism-based; settings: zebrafish, in vivo
[13] = species on record: Danio rerio; assay: Toxicity in zebra fish embryos assessed as adverse effects at >0.1 uM measured over 96 hrs; assay type: organism-based; settings: zebrafish, in vivo
[14] = species on record: Danio rerio; assay: Toxicity in zebra fish embryos assessed as curved tail at 0.1 uM measured after 96 hrs; assay type: organism-based; settings: zebrafish, in vivo
[15] = species on record: Danio rerio; assay: Toxicity in zebra fish embryos assessed as phenotype changes at 0.01 to 2.5 uM measured after 96 hrs; assay type: organism-based; settings: zebrafish, in vivo, dose 0.01-2.5 µM
[16] = Toxicity in zebra fish embryos assessed as lethality at 1.5 uM measured after 24 hrs relative to control; assay type: organism-based, Danio rerio; settings: zebrafish, in vivo, read-out: Activity
[17] = species on record: Danio rerio; assay: Toxicity in zebra fish embryos assessed as reduction in heart beat at 1 uM measured every 24 hrs for 120 hrs; assay type: organism-based; settings: zebrafish, in vivo
[18] = Permeability across apical to basolateral side in human Caco-2 cells at pH 6.5 assessed as compound recovery at 1 uM; assay type: ADME, cell-based; settings: Caco-2, pH 6.5, read-out: Drug recovery
[19] = Permeability across apical to basolateral side in human Caco-2 cells at pH 6.5 at 1 uM; assay type: ADME, cell-based; settings: Caco-2, pH 6.5, read-out: permeability
[20] = Permeability across basolateral to apical side in human Caco-2 cells at pH 7.4 at 1 uM; assay type: ADME, cell-based; settings: Caco-2, pH 7.4, read-out: permeability
[21] = Permeability across basolateral to apical side in human Caco-2 cells at pH 7.4 assessed as compound recovery at 1 uM; assay type: ADME, cell-based; settings: Caco-2, pH 7.4, read-out: Drug recovery
[22] = species on record: Danio rerio; assay: as §2, with “2.5” for “0.1”; assay type: organism-based; settings: zebrafish, in vivo
[23] = species on record: Danio rerio; assay: Toxicity in zebra fish embryos assessed as overall survival at 0.01 to 2.5 uM measured after 96 hrs; assay type: organism-based; settings: zebrafish, in vivo, dose 0.01-2.5 µM
[24] = species on record: Danio rerio; assay: as §2, with “minor tubular volume expansion” for “increase in fluorescence intensity”, “2.5” for “0.1”; assay type: organism-based; settings: zebrafish, in vivo

SMILES | Activity [1] [%] | solubility [2] [µM] | Activity [3] [%] | solubility [4] [µM] | Activity [5] [%] | Activity [6] [%] | Activity [7] [%] | remaining at 48 h [8] [%] | Activity [9] [%] | pIC50 [10] | further results
Cc1nc(N)sc1-c1ccnc(Nc2cccc([N+](=O)[O-])c2)n1 |  |  |  |  |  |  |  |  |  |  | Activity [11]: Toxic; Activity [12]: Toxic; Activity [13]: Toxic; Activity [14]: Toxic; Activity [15]: Non-Toxic; mortality at 24 h, 1.5 µM [16]: 100%
COC(=O)c1cccc(-c2cnc3[nH]cc(-c4cccc(OC)c4)c3c2)c1 | 12.4 | 2 (≈ 0.717 µg/mL) | 19.3 | 1 (≈ 0.358 µg/mL) | > 100 | 90 | > 100 | 97 | 94.1 | 6.78 | Activity [17]: Non-Toxic
COC(=O)c1cccc(-c2cnc3[nH]cc(-c4ccncc4)c3c2)c1 | 13 | 34 (≈ 11.2 µg/mL) | 1.8 | 30.9 (≈ 10.2 µg/mL) | 85 | 58.5 | 78.9 | 88 | 79.4 | 6.85 | Activity [22]: Toxic; Activity [23]: Non-Toxic; Activity [24]: Toxic

Second part, led by results:

Activity [1] [%] | solubility [2] [µM] | Activity [3] [%] | solubility [4] [µM] | Activity [5] [%] | Activity [6] [%] | Activity [7] [%] | remaining at 48 h [8] [%] | Activity [9] [%] | pIC50 [10] | SMILES | further results
17.4 | 5.7 (≈ 1.69 µg/mL) | 2.9 | 7.2 (≈ 2.13 µg/mL) | 69.6 | 27.9 | 83.4 | 98 | 35 | 6.89 | N#Cc1cccc(-c2cnc3[nH]cc(-c4cccnc4)c3c2)c1 | 
7.31 | 4.4 (≈ 1.44 µg/mL) | 23.5 | 2.5 (≈ 0.821 µg/mL) | > 100 | 78.7 | 82.9 | 86 | 97.2 | 6.91 | COC(=O)c1cccc(-c2cnc3[nH]cc(-c4ccccc4)c3c2)c1 | 
5.89 | 28.6 (≈ 9.45 µg/mL) | 22.3 | 4.6 (≈ 1.52 µg/mL) | 73.8 | 23.3 | 76.2 | 72 | 61.3 | 7.20 | COC(=O)c1cccc(-c2cnc3[nH]cc(-c4cncnc4)c3c2)c1 | recovery at 1 µM [18]: 1.5%; Papp A→B at 1 µM [19]: 0.37 ×10⁻⁶ cm/s; Papp B→A at 1 µM [20]: 0.21 ×10⁻⁶ cm/s; recovery at 1 µM [21]: 41.1%
